From patent US8420852B2, “Phospholipase A2 inhibitors and their use in treating neurological injury and disease” (The Regents of the University of California, priority 2007, dated 2013) come the findings set out here.

For one assay, the target named is T1, human cPLA2 (GIVA) (Homo sapiens, UniProt P47712).
T1 sequence (P47712 1-749): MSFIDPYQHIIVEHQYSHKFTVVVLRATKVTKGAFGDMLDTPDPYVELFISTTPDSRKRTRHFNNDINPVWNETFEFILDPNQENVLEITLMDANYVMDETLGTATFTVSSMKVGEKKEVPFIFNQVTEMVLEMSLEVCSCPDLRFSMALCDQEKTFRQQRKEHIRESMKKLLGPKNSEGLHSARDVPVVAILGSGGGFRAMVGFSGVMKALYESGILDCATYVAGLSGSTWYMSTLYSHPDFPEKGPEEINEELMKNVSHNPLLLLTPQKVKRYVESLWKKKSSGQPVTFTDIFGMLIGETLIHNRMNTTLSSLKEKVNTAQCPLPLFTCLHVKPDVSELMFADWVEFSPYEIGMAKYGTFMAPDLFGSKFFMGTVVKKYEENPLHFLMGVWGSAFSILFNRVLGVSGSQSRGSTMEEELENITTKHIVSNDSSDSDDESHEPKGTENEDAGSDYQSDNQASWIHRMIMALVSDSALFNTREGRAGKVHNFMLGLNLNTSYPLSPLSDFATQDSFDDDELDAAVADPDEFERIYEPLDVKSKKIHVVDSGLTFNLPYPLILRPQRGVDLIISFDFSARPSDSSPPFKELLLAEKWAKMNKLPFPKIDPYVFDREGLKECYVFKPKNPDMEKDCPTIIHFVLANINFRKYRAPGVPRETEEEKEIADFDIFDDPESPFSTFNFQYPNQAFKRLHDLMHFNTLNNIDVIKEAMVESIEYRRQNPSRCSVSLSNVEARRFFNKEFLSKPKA
The assay is described as follows: cPLA2 (GIVA) specific mixed micelle assay. It is filed as biochemical. The following applies: at 0.091 mol fraction. How it is done:
The compounds described herein were tested for inhibition of PLA2s in in vitro assay systems. The data, summarized in the Examples, are represented as XI(50) values unless otherwise noted. XI(50) is defined as the inhibitor concentration that produced 50% inhibition. XI(50) is used as opposed to the more common IC50 because GIVA and GVIA PLA2 are active at a two-dimensional lipid interface rather than in three-dimensional solution. (Deems, Anal. Biochem., 287:1-16, 2000).
For the groups that received delayed treatment after symptoms occurred, mice were treated with daily intraperitoneal injections of AX059 starting from the first day of clinical symptoms, beginning on day 11; and AX115 starting from the first day of clinical peak (i.e., score 4), beginning of day 14. All inhibitors were administered for 2 weeks. The selectivity of the compounds for the different PLA2s is shown as the percentage inhibition in Table 1. The XI(50) is the mole fraction of the inhibitor in the total substrate interface required to inhibit the enzyme by 50%.
Compound AX115 was tested for its ability to inhibit human cPLA2 (GIVA) in a cPLA2 (GIVA) specific assay that uses mixed micelles of the substrate 1-palmitoyl-2-arachidonyl phosphatidylcholine and the detergent Triton X-100 (97:3) containing phosphatidylinositol 4,5-bisphosphate (400 μM) as previously described. […]

Assay [1] relates to chemokine and cytokine protein expression in spinal cord. Nature of the assay: mouse inflammation antibody array of spinal cords of EAE mice. It counts as in vivo. The following applies: treatment from day 5, tissue day 18. How it is done:
Spinal cords were removed from vehicle and inhibitor treated animals when the vehicle-treated mice reached the peak of disease (score of 4). The tissues were then homogenized in lysis buffer and centrifuged at 1000×g. These protein samples were then assessed using the Raybio® inflammatory antibody array from RayBiotech Inc (Norcross, Ga.). Briefly, blocking buffer was added to glass-chip slides, which are coated with antibodies against chemokine, cytokine and related proteins. The slides were then incubated with the various protein samples from the treatment and control groups. After washing the glass slides, they were incubated sequentially with a biotin conjugated secondary antibody solution, horseradish peroxidase (HRP)-conjugated strepavidin, and HRP detection buffer. The signals were then visualized by chemiluminescence. Densitometric analysis was performed to detect differences between the various samples using ImageQuant 5.1 software (Molecular Dynamics). Positive control signals were used to normalize the level of expression from different glass slides being compared. Experiments were repeated with 3 different samples (n=3), and all the detection and analysis was done blind.
The results of this group of experiments are shown with the reference to FIGS. 15 and 16. FIG. 15 provides graphs showing the level of protein expression of chemokines in spinal cords of naive mice and EAE mice treated with PLA2 inhibitors starting on day 5. Tissues were taken on day 18, when the vehicle treated animals reached the peak of the first clinical attack. The data are shown for inhibitors AX059 (FIG. 15a) and AX115 (FIG. 15b). Data represent means±SEM from 3 animals in each group. In the figures, * represents a significant decrease, while ** represents a significant increase as compared to vehicle treated EAE controls.
FIG. 16 provides graphs showing the level of protein expression of cytokines in spinal cords of naive mice and EAE treated mice treated with PLA2 inhibitors starting on day 5. Tissues were taken on day 18, when the vehicle treated animals reached the peak of the first clinical attack. The data are shown for inhibitors AX059 (FIG. 16a) and AX115 (FIG. 16b). Data represent means±SEM from 3 animals in each group. In the figures, * represents a significant decrease, while ** represents a significant increase as compared to vehicle treated EAE controls.
Changes were assessed in protein expression of 40 chemokines and cytokines, their receptors and related molecules, using a mouse antibody array (RayBiotech Inc.). The analysis was carried out on spinal cords from mice treated with inhibitors starting from day 5 post-immunization. Tissue was taken on day 18 when the control vehicle-treated mice reached the peak of the first clinical attack. 12 chemokines were increased in vehicle-treated mice (FIG. 15), most of which are known to play a role in EAE, except for LIX (CXCL5) and TECK (CCL25), whose functions in CNS autoimmune disease remain unclear. […] In contrast, the pan-inhibitor AX115, which inhibits sPLA2 greater than AX059 reduced the expression of 7 of the 12 chemokines (FIG. 15b). Importantly, it increased the expression of eotaxin-2 (1.8-fold), RANTES (9.6-fold) and MIP-1 γ (9.7-fold) […], which can also regulate the allergic arm of the immune response.

Molecules are shown by their SMILES.

Regarding `CCCCCCCCCCCCCCC(=O)C(=O)NCC(=O)OC` [AX115], the “Inhibition cPLA2 GIVA” value on human cPLA2 (GIVA) was determined as 62%. In addition, the “number of chemokines reduced” value in assay [1] (of the 12 chemokines increased in vehicle-treated EAE mice) was determined as 7. For the same compound, the “number of cytokines reduced” value in assay [1] (of the 13 cytokines increased in vehicle-treated EAE mice) was 9. Also, in assay [1] (spinal cord), the “increase in expression of IL-10” value was “failed to increase IL-10”, the “increase in expression of MIP-1 γ” value was determined as 9.7 fold, the “increase in expression of RANTES” value came out at 9.6 fold and the “increase in expression of eotaxin-2” value was 1.8 fold. The “increase in soluble TNF receptor 1 (sTNFR1)” value in assay [1] (spinal cord) is listed as ~4 fold.
